The results in this text go back to a melting point compilation (Tetko et al.; mined from patent text by program, amines drawn as free bases though some values may be those of a salt).

With `O=C1CCCN1CC1CCN(c2nc(C(F)(F)F)ncc2O)CC1`, the melting point (commonly the temperature of the solid-liquid transition) lay in the range of 213 to 215 °C.

`CC1(C)CCC(C)(C)c2cc(N(Cc3cccs3)C(=O)Nc3ccc(C(=O)O)cc3)ccc21` had a melting point of 167 to 170 °C.

Regarding `COc1cc(C(=O)NS(=O)(=O)c2ccccc2C)ccc1Cn1cc(/C=C/C(=O)N2CCCC2)c2ccc(/C=C/C(=O)N3CCCC3)cc21`, the melting point lay in the range of 297 to 299 °C.

On to `COc1ccc(C#N)c(C=C(C)N(C)C)n1`, for which the melting point is 103 to 104 °C.

Compound `OC1CSC(Oc2ccc(-c3cccnc3)nc2Cl)C(O)C1O` (stereo not drawn) returned a melting point of 180 °C.

`CCc1cccc(C)c1S(=O)(=O)c1nc[nH]n1` came in with a melting point of 180 to 181 °C.

`CCNC(=O)c1ccc(C=C2CC3CCC(C2)N3CCC(C(=O)N(C)C)(c2ccccc2)c2ccccc2)cc1` registered a melting point of 137 to 139 °C.

Take `CC(=O)N1CCc2cc(-c3ccc4c(c3)CCC3N(C)C(=O)CCC43C)cc([N+](=O)[O-])c21` (single isomer, unassigned; (+)): the melting point lay in the range of 235 to 240 °C.

Take `CCOc1cc(NC(=O)NS(=O)(=O)c2ccc(C)cc2)ccn1`: the melting point lay within 146 to 148 °C.

Regarding `COc1ccc2c(c1)COc1c-2cc(-c2cccs2)c2cc(OC)ccc12`, the melting point was 110 to 112 °C.

Turning to `O=C(c1ccc(Cc2ccc(F)cc2)o1)c1oc(CO)cc(=O)c1OCc1ccccc1`, the melting point is 104 to 106 °C.

The compound `CN(c1ncccc1[N+](=O)[O-])C1CCN(Cc2ccccc2)CC1` came in with a melting point of 92 to 95 °C.

On to `COc1cc(S(=O)(=O)c2ccncc2)ccc1[N+](=O)[O-]`, for which the melting point was in the range of 123 to 124 °C.

The compound `CC(C)(Cl)CC1NC(=O)c2ccccc21` (stereo not drawn) came in with a melting point of 153 to 155 °C.

The compound `NCCNc1cccc2cn[nH]c12` displayed a melting point of 166 to 168 °C.

`Cc1ccc(-c2ccc(C(=O)Nc3ccc4cc(CN5CCCC5)cnc4c3C)cc2)cc1` registered a melting point of 177 to 179 °C.

With `COc1ccc(C)cc1NC(=O)Nc1ccc(N2CCN(C(=O)Nc3ccc(CO)cc3C)CC2)cc1`, the melting point was in the range of 138 to 141 °C.

`CCCCOc1cc(I)c(OCCCC)cc1I` yielded a melting point of 86 to 87.5 °C.

For `CC1(C)Oc2c(Cl)cc(Cl)cc2[C@@H](Br)[C@@H]1O` (relative stereo), the melting point turned out to be 46 °C.

On to `CSc1ccc(CC(NC(=O)OCc2ccccc2)C(O)C#N)cc1` (stereo not drawn), for which the melting point was in the range of 123 to 125 °C.

Compound `O=C1CCC(c2ccncc2)=NN1` registered a melting point of 185 to 187 °C.

In turn, `COC(C)(C)C(=NO)n1ccnc1` had a melting point of 155 to 160 °C.

Regarding `COC(=O)c1cc(OC)c(Cc2c(N)nc(N)nc2O)c(OC)c1`, the melting point is 224 to 226 °C.

Compound `O=c1cc[nH]n1-c1c(Cl)cc(C(F)(F)F)cc1Cl` came in with a melting point of 228 °C.

For the compound `CCCCCCCCCC(=O)Nc1ccc(C=C(C#N)C(=O)OCC)cc1`, the melting point was 76 °C.

As for `COc1ccc(-c2nc(CN(C)C)nc3sc(C)c(C)c23)cc1OC`, the melting point lay within 118 to 120 °C.

The compound `CCCCCCCCCCCCCCOc1ccc(C(N)=O)cc1` yielded a melting point of 128 to 130 °C.

Take `COc1ccc(-c2c(Cl)c(COc3ccccn3)nc3sc4c(c23)CCN(Cc2ccccc2)C4)cc1OC`: the melting point was 165 to 167 °C.

Compound `Cc1ccc(Oc2ccc(OC(=O)NC(C)CCCC(C)C)cc2)cc1` (stereo not drawn) displayed a melting point of 45 to 47 °C.

`CC1(C)CCC(C)(C)c2cc(-c3cc4ccc(C(=O)O)cc4[nH]3)ccc21` yielded a melting point of 215 °C.

`O=C1CCCc2c1c1cccc3c1n2CCC3` displayed a melting point of 160 to 164 °C.

As to `CC1CC(=O)NN=C1c1ccc(NC(=O)C(C)OS(C)(=O)=O)cc1` (stereo not drawn), the melting point fell in the range of 110 to 112 °C.

Turning to `O=S(=O)(Nc1cccc(CCOCc2cccc(-c3ccc(F)cc3)n2)c1)C(F)(F)F`, the melting point is 71 to 73 °C.

`COC(=O)CCC/C=C(\c1cc(C)c(OC)c(C(=O)OC)c1)c1cc(C)c2oc(=O)n(C)c2c1` showed a melting point of 120 °C.

Regarding `O=C1CCC(CCC(=O)OCc2ccc(C(F)(F)F)cc2)N1` (stereo not drawn), the melting point lay in the range of 81 to 82 °C.

`O=c1c(-c2ccccc2Cl)coc2cc(OCc3nnn[nH]3)cc(Cl)c12` returned a melting point of 192 to 195 °C.

As for `CC(=O)N1CCc2c(c(=O)c3cccnc3n2-c2ccccc2)C1`, the melting point was in the range of 210 to 212 °C.

The compound `Cc1ccc(NC(N)=S)c(O)c1` showed a melting point of 175 to 177 °C.

Compound `CC1(C)OC(=O)C[C@H]2NC(=O)[C@H]21` yielded a melting point of 180 to 182 °C.

The compound `CC(C)(C)c1cc(-c2ccc(C(=O)O)cc2)cc(C(C)(C)C)c1O` displayed a melting point above 240 °C.

`O=c1nc(-c2ccc3c(n2)CCCC3)sc2ccccc12` returned a melting point of 232 to 233 °C.

`Cc1ccc(Cn2cc(C(=O)C(=O)O)c3cc(-c4ccccc4)ccc32)cc1`: the melting point was 195 to 196 °C.

`C=CCn1c(=O)c([N+](=O)[O-])c(O)c2ccccc21` displayed a melting point of 125 to 127 °C.

On to `Cc1cc(OCc2ccccc2)c(C)cc1CO`, for which the melting point fell in the range of 58 to 59 °C.

Take `COC(=O)c1ccc(-c2nc3cc(C(=O)OC)ccc3o2)cc1`: the melting point was 195 to 210 °C.

In turn, `CC(=O)C1=Cc2ccccc2NN=C1` came in with a melting point of 66 to 68 °C.

As to `CS(=O)(=O)c1ccc(-c2nc(-c3ccccc3)nn2-c2ccc(Cl)cc2)cc1`, the melting point was 170 °C.

The compound `CC(C)(C)OC(=O)N1CCC(Cn2cc(S(=O)(=O)c3ccccc3)c3ccccc32)CC1` gave a melting point of 181 to 182 °C.

For `CNC(=O)c1cc(N)cc(N2CCOCC2)c1`, the melting point lay in the range of 201 to 204 °C.

Compound `Cc1cnc2c(cc(C(N)=O)c3nncc32)c(-c2ccccc2F)n1` gave a melting point of 323 to 324 °C.

Compound `CC(C)C/C(=C/CCNC(=O)OCc1ccccc1)C(=O)O` registered a melting point of 70 to 71 °C.

`c1ccc(CCc2[nH]ncc2-c2ccncc2)cc1`: the melting point was 125 to 131 °C.

As to `CN(C)Cc1ccc(C=CC(=O)N2CCc3c([nH]c4ccccc34)C2c2ccc3c(c2)CCO3)cn1` (stereo not drawn), the melting point amounted to 163 °C.

`O=c1c2ccccc2ccc2cc(F)ccc12` showed a melting point of 119 to 123 °C.

Turning to `CCc1cccc(NCCCc2cn(C(c3ccccc3)(c3ccccc3)c3ccccc3)cn2)c1`, the melting point fell in the range of 189 to 191 °C.

`CCN(CC)CCOCCC1CCN(C(=O)N2c3cc(Cl)ccc3C(=O)Nc3cccnc32)CC1` had a melting point of 145 to 146 °C.

Turning to `O=C(O)COCc1cccc(-c2ccccc2OC2OC(CO)C(O)C(O)C2O)c1` (stereo not drawn), the melting point was 77 to 78 °C.

As to `O=Cc1cccc2nnc(-c3ccccc3)cc12`, the melting point lay within 156 to 157 °C.

On to `Fc1ccc(SCCCN2CCN(c3ncc(F)cn3)CC2)cc1`, for which the melting point lay in the range of 68 to 70 °C.

As to `COC(=O)c1cc(=O)c2oc3cc(OC)ccc3c(=O)c2[nH]1`, the melting point was in the range of 258 to 260 °C.

The compound `CNC(=O)C(Br)CCBr` (stereo not drawn) yielded a melting point of 48 to 49 °C.

The compound `COC(=O)c1c(C)nc2c(c1N)c1c(n2Cc2ccc(OC)cc2)CCCC1` came in with a melting point of 130 to 131 °C.

For `COC(=O)c1cccc(NC(=O)NCC(=O)N(CC(=O)N2CCCC2)c2ccccc2C(=O)c2ccccc2)c1`, the melting point lay in the range of 189 to 194 °C.

As to `COc1cc(OC)c(-c2cc3ccccc3[nH]2)cc1C=CC(=O)c1ccc(S(=O)(=O)NCCCn2ccnc2)cc1`, the melting point is 197 to 200 °C.

The compound `Cc1cc(-n2ccnc2)c2cccc(OCc3c(Cl)ccc(S(=O)(=O)N4CCC[C@H]4C(=O)NCCCN(C)C(=O)OC(C)(C)C)c3Cl)c2n1` yielded a melting point of 75 °C.

For `CC(C)c1cc(C(C)C)c(CC(=O)NS(=O)(=O)Oc2c(C(C)C)cc(NCCO)cc2C(C)C)c(C(C)C)c1`, the melting point fell in the range of 149 to 152 °C.

Turning to `CC1(C)CCC(=O)Nc2cc(OCCCCN3CCN(c4cccc(Cl)c4Cl)CC3)ccc21`, the melting point lay in the range of 106 to 108 °C.

`COc1ccc(CCBr)cc1OC`: the melting point fell in the range of 72 to 73 °C.

Take `CC(C)N1C(=O)c2cnc(-c3ccccc3)nc2N(C(=O)CN2CCN(C)CC2)c2ccccc21`: the melting point lay in the range of 168 to 170 °C.

`CCC(CC)(CC(=O)Nc1cccc(/C=C/c2nc(C3CC3)cs2)c1)C(=O)O` returned a melting point of 153 to 157 °C.

As to `CSc1ccc(C2=C(c3ccc(CO)cc3)CCC2)cc1`, the melting point fell in the range of 82 to 85 °C.

`CC(=O)OC1CSC(Oc2ccc3ncsc3c2)C(OC(C)=O)C1OC(C)=O` (stereo not drawn): the melting point worked out at 166 °C.

In turn, `Cc1nc(F)c(S(C)(=O)=O)c(F)n1` showed a melting point of 120 to 123 °C.

In turn, `C#CC[C@H](c1nc2cc(Cl)ccc2c(=O)n1Nc1ccccc1)N(CCCN)C(=O)c1cc(F)cc(F)c1F` came in with a melting point of 168 to 170 °C.

`CC(C)(C)c1cc(C2=CCCCCC2)c(O)c(C(C)(C)C)c1` displayed a melting point of 78 to 80 °C.

In turn, `CC12CCC(=O)C([N+](=O)[O-])=C1CCC1C2CCC2(C)C(OC3CC3)CCC12` (stereo not drawn) displayed a melting point of 133 to 134 °C.

In turn, `CC(C)=NNc1ccc(OCC(C)NCC(O)COc2ccccc2C#N)nn1` (stereo not drawn) returned a melting point of 121 to 123 °C.

On to `CC(=O)CCc1ccc2c(c1)Cc1cc(N)ccc1-2`, for which the melting point lay within 116 to 117 °C.

The compound `Cc1ccc([N+](=O)[O-])cc1COCC(F)(F)C(F)(F)F` showed a melting point of 53.5 to 54.5 °C.

`O=[N+]([O-])c1ccccc1OCCN1CCN(c2cc(Cl)nnc2Cl)CC1` returned a melting point of 125 to 126 °C.

With `Cc1oc(-c2ccccc2)nc1CCCCCOC(C)(C)C(=O)O`, the melting point was 66 to 68 °C.

As for `CCOC(=O)CCc1cn(CCc2ccc(OCc3nc(-c4ccccc4)oc3C)cc2)nc1-c1ccccc1`, the melting point was in the range of 81 to 82 °C.

With `O=C(NN=Cc1c(O)c(O)cc2ccccc12)c1cc2ccccc2cc1O`, the melting point is above 285 °C.

The compound `Cn1c(=O)n(Cc2ccc(F)cc2)c(=O)c2cc(C#CCc3ccccc3)ccc21` returned a melting point of 160 °C.

In turn, `N#Cc1ccc(C(Cl)(Cl)Cl)cc1C(Cl)(Cl)Cl` registered a melting point of 76 to 78 °C.

As for `C=CC(=O)Oc1ccc(N2C(=O)C(=C(C)C)/C(=C(/C)c3c(C)n(C)c4ccccc34)C2=O)cc1`, the melting point lay in the range of 172 to 174 °C.

With `CCSc1ncc(Oc2ccc(Cl)c(Cl)c2)cc1C#N`, the melting point was in the range of 80 to 81 °C.

`Cc1cc([N+](=O)[O-])cc(C=O)c1O` yielded a melting point of 132 to 133 °C.
